Results as given in patent US8883758B2, “3,5-disubstituted and 3,5,7-trisubstituted-3H-oxazolo and 3H-thiazolo[4,5-d]pyrimidin-2-one compounds and prodrugs thereof” (Anadys Pharmaceuticals, Inc., priority 2004, dated 2014).

Each molecule was assayed on fresh cynomolgus monkey hepatocytes (assay: Metabolism of Formula I prodrugs to 6-oxy metabolites in fresh cynomolgus monkey hepatocytes (LC/MS/MS)).
Assay type: in vitro ADME
Procedure: A study was undertaken to evaluate the metabolic stability of Formula I compounds 14, 15, 13, 114, 30, 103, 67, 65, and 76 in the presence of fresh cynomolgus monkey hepatocytes and monitor the formation of 6-oxy metabolites, i.e., Formula II compounds and other compounds of the invention. For comparison, the metabolic stability of famciclovir was also assessed.
Fresh cynomolgus monkey hepatocyte suspension (Lot #: Cy141) was purchased from CellzDirect (Tucson, Ariz.). Hepatocyte Incubation Medium (serum-free, sterile) was purchased from In Vitro Technologies (Baltimore, Md.).
The cynomolgus monkey hepatocyte suspension was prepared from fresh cynomolgus monkey hepatocytes in hepatocyte incubation medium at the concentration of 1.25 million cells/mL. The final incubation concentration (after test article addition) was 1.0 million cells/mL.
Existing 100 mM stock solutions in DMSO were used. The concentrations of the test articles were checked using UV-vis microplate reader. Correction coefficients were determined using the absorbance of a freshly prepared DMSO stock of 122.
Reaction suspensions were prepared in removable 96-well tubes, each containing 320 μL of fresh cynomolgus monkey hepatocyte suspension at the density of 1.25 million cells per mL and 40 μL of hepatocyte incubation medium. The above mixtures were pre-incubated open at 37° C., 95% humidity and 5% CO2 for 30 minutes. Reactions were initiated by the addition of 40 μL of test article at 10× concentration to each tube to achieve the final concentrations of 50 μM for the test article(s) and 1 million/mL cell density. The reaction suspension in each tube was mixed by inverting the tube several times. Aliquots of 50 μL from each reaction suspension were distributed into six additional removable 96-well tubes (one tube per time point taken at 15, 30, 45, 60, 90, and 120 minutes). The open tubes were incubated at 37° C. under 95% humidity and 5% CO2.
At predetermined time points, reactions were terminated by the addition of 150 μL of the stop solution to each tube containing 50 μL of the reaction suspension. The composition of the stop solution was the following: 15 mL of acetonitrile (containing 1 μg/mL nebularine as an internal standard and 0.1% formic acid) combined with 1 mL water.
The calibration curves were prepared in the following way. To 80 μL of cell suspension (at the cell density of 1.25 million/mL) 10 μL of hepatocyte incubation medium and 10 μL of the appropriate concentration of the compound in hepatocyte incubation medium were added Immediately following the compound addition, 300 μL of the stop solution (see above) was added.
All quenched samples were kept on wet ice until they were processed for analysis. Then they were mixed using a bench top Multi-Tube Vortexer (VWR Scientific Products) for approximately 30 seconds, and centrifuged at 4,000 rpm (3,220 rcf) for 10 minutes at 4° C. Clear supernatant (100 μl) was transferred into a clean deep well 96-well plate, evaporated to dryness under nitrogen, reconstituted in 100 μL of 90:10 water:acetonitrile, and analyzed for the parent form and metabolites of the test article using an appropriate LC/MS/MS method.
The compounds were quantified on an API3000 LC/MS/MS instrument in the ESI-Positive MRM (multiple reaction monitoring) mode.

| Structure (SMILES) | Metabolism to the corresponding 6-oxy metabolite |
| --- | --- |
| Nc1ncc2sc(=O)n([C@@H]3O[C@H](CO)C[C@H]3O)c2n1 [Compound 13, 5-Amino-3-(3′-deoxy-β-D-ribofuranosyl)-3H-thiazolo[4,5-d]pyrimidin-2-one] | metabolized to yield the corresponding 6-oxy metabolites |
| CC(=O)OC[C@H]1O[C@@H](n2c(=O)sc3cnc(N)nc32)[C@H](OC(C)=O)[C@H]1OC(C)=O [Compound 114, 5-Amino-3-(2′,3′,5′-tri-O-acetyl-β-D-xylofuranosyl)-3H-thiazolo[4,5-d]pyrimidin-2-one] | metabolized to yield the corresponding 6-oxy metabolites |
| CC(=O)OCC[C@H]1O[C@@H](n2c(=O)sc3cnc(N)nc32)[C@H](OC(C)=O)[C@@H]1OC(C)=O [Compound 67, 5-Amino-3-(5′-O-acetoxymethyl-2′,3′-di-O-acetyl-5′-deoxy-β-D-ribofuranosyl)-3H-thiazolo[4,5-d]pyrimidin-2-one] | metabolized to yield the corresponding 6-oxy metabolites |
| CC(=O)OC[C@@H]1C[C@@H](OC(C)=O)[C@H](n2c(=O)sc3cnc(N)nc32)O1 [Compound 14, 5-Amino-3-(2′,5′-di-O-acetyl-3′-deoxy-β-D-ribofuranosyl)-3H-thiazolo[4,5-d]pyrimidin-2-one] | metabolized to yield the corresponding 6-oxy metabolites |
| Nc1ncc2sc(=O)n(C3O[C@H](CO)[C@@H](CO)[C@H]3O)c2n1 (stereo partly drawn) [Compound 65, (3′S)-5-Amino-3-(3′-deoxy-3′-hydroxymethyl-β-D-ribofuranosyl)-3H-thiazolo[4,5-d]pyrimidin-2-one] | metabolized to yield the corresponding 6-oxy metabolites |
| C=C1[C@@H](O)[C@H](n2c(=O)sc3cnc(N)nc32)O[C@@H]1CO [Compound 76, 5-Amino-3-(3′-deoxy-3′-methylidene-β-D-ribofuranosyl)-3H-thiazolo[4,5-d]pyrimidin-2-one] | metabolized to yield the corresponding 6-oxy metabolites |
| CC(=O)O[C@@H]1C[C@@H](CO)O[C@H]1n1c(=O)sc2cnc(N)nc21 [Compound 15, 5-Amino-3-(2′-O-acetyl-3′-deoxy-β-D-ribofuranosyl)-3H-thiazolo[4,5-d]pyrimidin-2-one] | metabolized to yield the corresponding 6-oxy metabolites |
| C[C@@]1(O)[C@@H](CO)O[C@@H](n2c(=O)sc3cnc(N)nc32)[C@@H]1O [Compound 30, 5-Amino-3-(3′-methyl-β-D-ribofuransyl)-3H-thiazolo[4,5-d]pyrimidin-2-one] | metabolized to yield the corresponding 6-oxy metabolites |
| CC(=O)OC[C@H]1O[C@@H](n2c(=O)sc3cnc(N)nc32)[C@H](OC(C)=O)[C@@]1(C)OC(C)=O [Compound 103, 5-Amino-3-(3′-methyl, 2′,3′,5′-tri-O-acetyl-β-D-xylofuranosyl)-3H-thiazolo[4,5-d]pyrimidin-2-one] | metabolized to yield the corresponding 6-oxy metabolites |
